US20230130243A1, “Method of Treating Urothelial Carcinoma and Other Genitourinary Malignancies Using N-(4-(6,7-dimethoxyquinolin-4-yloxy)phenyl)-N'-(4-fluorophenyl)cyclopropane-1,1-dicarboxamide” (The United States of America, as Represented by the …, priority 2016, published 2023)

What was measured:
[1] = test system: relapsed/refractory metastatic urothelial carcinoma (mUC); conditions: pretreated patients with relapsed/refractory mUC; cited from earlier work
[2] = test system: Treg (CD4+CD25hiFoxp3+) in CD4+ T-cells; assay: Treg population in urothelial cancer patients treated with cabozantinib (FIGS. 1, 2); assay type: in vivo, human
Source text: Directly killing the tregs, and 2. Influencing treg polarization. See Apolo, A B, et al., J. Clin. Oncol. 2014; 32s:abstr 4501.
With reference to FIG. 2, it is believed that cabozantinib downregulates regulatory T cell population by acting on T cell polarization via inhibition of transcription factor Foxp3. The biologic rationale for combining cabozantinib and immune checkpoint blockade in mUC can be extrapolated from the results shown in FIGS. 2A and 2B. In FIG. 2A, patients with lower percent Treg (CD4+CD25hiFoxp3+) in CD4+ T-cells (<3.89%=median value) at baseline had better response compared with those who had higher percent Treg at baseline.

[3] = test system: peripheral blood mononuclear cells (PBMC); assay: PBMC incubated with Cabozantinib, master regulator transcription factors of CD4+ T-cell polarization (FIGS. 1A and 1B); assay type: cell-based; conditions: PBMCs, 3-4 days, 10% FBS-RPMI, Cabozantinib 10 uM vs DMSO control; three donors
Description: With reference to FIGS. 1A and 1B, peripheral blood mononuclear cells (PBMC) were obtained by centrifugation from buffy coat. PBMCs were incubated for 3-4 days in a 24 well plate with 10% FBS-RPMI medium with DMSO (control) or Cabozantinib (10 uM). Representative data obtained from three different donors were shown. […] Naïve CD4+ T-cells can polarize toward four CD4+ lineages.

[4] = test system: metastatic urothelial carcinoma and other genitourinary malignancies; assay: Phase I study of CaboNivo and CaboNivoIpi in patients; assay type: in vivo, human
Source text: This example provides results of a Phase I study of Cabozantinib (Cabo)+Nivolumab (Nivo) and (CaboNivo) Cabo+Nivolumab+Ipilimumab (Ipi) (CaboNivoIpi) in patients with metastatic urothelial carcinoma and other genitourinary malignancies.
The study provides results of a Phase I study of Cabozantinib+Nivolumab and Cabozantinib+Nivolumab+Ipilimumab in patients with metastatic urothelial carcinoma and other genitourinary malignancies. The purpose of the study was to determine the dose limiting toxicity (DLT) and recommended Phase II dose (RP2D) of the combination of CaboNivo and separately the combination of CaboNivolpi. In the study, DLT was defined as any event requiring a patient to discontinue study treatment. The DLT evaluation period was 4 weeks (Part 1) and 6 weeks (Part 2).
Secondary endpoints for the study included overall response rate (ORR) by RECIST v1.1; duration of response; progression free survival (PFS); and overall survival (OS). Exploratory Endpoints included the identification of immune subset biomarkers associated with PD-L1 and MET expression as well as correlation with efficacy.
Key eligibility criteria for the study included: • Histologically confirmed diagnostic of genitourinary (GU) malignancy; • Patients with metastatic GU malignancy who has disease progression on at least one standard therapy or there must be no standard treatment that prolongs survival; • A Karnofsky performance status of greater than or equal to 70 percent; and • One evaluable site of disease or bone disease by NaF PET/CT.

[5] = test system: metastatic urothelial carcinoma (mUC); conditions: mUC patients progressed despite prior platinum-containing chemotherapy; cited from earlier work

Row | patients with 3 dose reductions ([4]; 2 of the 18 patients with dose reduction) | patients with 2 dose reductions ([4]; 6 of the 18 patients with dose reduction) | patients with 1 dose reduction ([4]; 10 of the 18 patients with dose reduction) | patients with ≥1 dose reduction of cabozantinib ([4]; 18 of 42 patients) | median dose reduction ([4]; number of dose reductions per patient, 18 patients) | Compound | clinical activity [1] | percent Treg among CD4+ T-cells ([2]; after treatment with Cabozantinib, FIG. 2B) | Treg population ([2]; urothelial cancer patients, FIG. 1, see Apolo et al. 2014) | suppression of master regulator transcription factors of CD4+ T-cell polarization [3] | clinical activity [5]
1 | 11% | 33% | 56% | 43% | 1 (range 1-3) | COc1cc2nccc(Oc3ccc(NC(=O)C4(C(=O)Nc5ccc(F)cc5)CC4)cc3)c2cc1OC [Cabozantinib, N-(4-(6,7-dimethoxyquinolin-4-yloxy)phenyl)-N′-(4-fluorophenyl)cyclopropane-1,1-dicarboxamide] | clinical activity | decreased significantly | decrease the Treg population | suppresses only Foxp3 | 
2 |  |  |  |  |  | Nivolumab: IgG4 anti-PD-1 monoclonal antibody sold under the name OPDIVO |  |  |  |  | clinical activity
